The text below walks through data of patent US9193983B2, “Assays for mutagenesis detection” (The Regents of the University of California, priority 2007, dated 2015).

Series [1] relates to Saccharomyces cerevisiae. The settings on record: cited from earlier work; for induction of DNA deletions: previous experiments.
The subject of series [2] is Saccharomyces cerevisiae. The note with it: Angeli's salt as HNO donor; cited from earlier work.
Series [3] is described as follows: well-based DEL assay (MTS colorimetric, 96/384-well): genotoxicity and cytotoxicity. The note with it: Saccharomyces cerevisiae; for viability: Cytotoxicity (% survival). The source says:
(§1) The RS112 yeast DEL assay tester strain of Saccharomyces cerevisiae contains a plasmid with an internal fragment of the HIS3 gene integrated at the genomic HIS3 locus, yielding an integrative disruption of the HIS3 gene. This disruption results in two copies of the HIS3 gene, each copy having one terminal deletion. Recombination between the two his3 deletion alleles results in reversion to HIS3^+ and growth in the absence of histidine. This recombination event leads to a 6 kb DNA deletion comprising the integrated plasmid leading to deletion (DEL) events. The assay utilizing DEL events involves overnight growth of a single colony of the RS112 strain and subsequent subculture with the presence or absence of the chemical being tested for 17 hours at 30° C. under constant shaking. Yeast are then plated onto SC medium to determine the number of survivors (individual colonies are counted) and onto SC-HIS medium to score for DEL events. The traditional DEL assay is very powerful if one is testing a limited number of chemicals but becomes impractical for screening large numbers of chemicals and chemical libraries.
(§2) For 384-well plate format, 1 μl of yeast (˜100,000 cells) was pipetted into 8 microplate wells for each compound, four of which containing 70 μl SC media and four containing 70 μl SC-HIS media; each well was supplemented with 14 μl of MTS and 5 μl of compound. For 96-well plate format, the above was consistent except media, MTS, and compound volumes were 100 μl, 20 μl, and 7 μl, respectively. Control wells were treated with water in lieu of compound. The outermost columns of the 96-well plate and outer two columns of each 384-well plate were excluded from experimentation lest edge evaporative effects alter the data. Plates were incubated at 30° C. at normal atmosphere during which yeast were grown in the presence of the tested compound and 490 nm absorbance was measured 10-18 hr later using a Molecular Devices SpectraMax M5 microplate reader (Sunnyvale, Calif.).
(§3) Survival for a given compound treatment was quantified by averaging the absorbance across the four treated wells in SC media and dividing that by the average absorbance of control wells. DEL induction was quantified by dividing the absorbance of each SC-HIS well by the corresponding paired SC well. Thus for each compound done in quadruplicate, each plate contains a set of 4 different measurements of DEL induction. For each compound, ratio of the average DEL induction in treated versus control cultures was taken as the fold-increase in DEL events (HIS^+ growth). A Student's t-test was performed on the 4 measurements of DEL induction and the same measurements recorded from control wells to determine significance of the fold-increase. It should be noted that this value of fold-increase is analyzed statistically for significance and not absolute; thus two different chemicals may have the same fold-increase but varying levels of significance. In plots and tables, data from a single experiment performed in quadruplicate is presented; all experiments were repeated independently in at least 3 separate experiments in both 96 and 384-well plate formats.

The test system of series [4] is S. cerevisiae strain RS112. Described as above.
Source text: as §1, §2, §3

For series [5], the system named is Saccharomyces cerevisiae. Briefly: traditional plate-based yeast DEL assay (DNA deletions). The settings on record: 1.4 mM; background about 20 DEL events per 100,000 cells. In kind it is cell-based. Here is the method:
In one embodiment, yeast cells (Saccharomyces cerevisiae) having a disruption of the his gene as the DEL selection marker are treated with test agents in 25 ml tubes and then plated for about 48 h at 30° C. Following treatment the cells are washed, for example, with PBS, and sonicated to assure dissociation of the cells into a single-cell suspension. The cells are then plated at an appropriate dilution (see below) onto medium lacking histidine as well as standard medium containing histidine. The histidine-lacking medium is used to determine recombination frequency. Standard medium (medium containing histidine) is used to determine the overall toxicity of the test agent.

In the case of `CC(=O)N[C@@H](CS)C(=O)O` [NAC, N-acetylamine], the “protection against HNO induced DNA deletions” value in the series on Saccharomyces cerevisiae [1] was “protected”.
As for `N=O` [HNO], the “induction of DNA deletions and recombination” value in the series on Saccharomyces cerevisiae [1] (Angeli's salt as HNO donor) was “potent inducer of DNA deletions and recombination”. In addition, the genotoxicity result in the series on Saccharomyces cerevisiae [1] (under aerobic and anaerobic conditions) was “observed”. Moreover, the “induction of point mutations” value in the series on Saccharomyces cerevisiae [2] is listed as “negative”.
In general, viability refers to the share of living cells, or the viability signal relative to a control. Consider `c1ccccc1` [Benzene, benzene], for which, in series [3], the viability at 0.25 mg/ml came to 96% and the viability at 0.4 mg/ml turned out to be 83.7%. Moreover, in series [4] (0.25 mg/ml final in well), the Cytotoxicity significance entry is given as “ns (ns—not significant (p > 0.05))”, the “DEL (fold increase)” value is given as 1.77 fold and the DEL significance entry is reported as “*** (*** (p < 0.005))”. In series [4] (0.40 mg/ml final in well), the Cytotoxicity significance result is given as “** (** (p < 0.01))”, the “DEL (fold increase)” value is on record as 2.31 fold and the DEL significance entry is recorded as “*** (*** (p < 0.005))”. In addition, the DEL induction entry in series [4] (0.25 and 0.40 mg/ml) was “significant DEL induction”.
As for `[Cl][Cr]([Cl])[Cl]` [Cr (3), CrCl3], in series [4] (0.2 mM final in well), the “Cytotoxicity (% survival)” value worked out at 110.1%, the “DEL (fold increase)” value came out at 0.93 fold and the DEL significance entry is listed as “ns (ns—not significant (p > 0.05))”. Besides, in series [4] (0.7 mM final in well), the “Cytotoxicity (% survival)” value was determined as 85.8%, the Cytotoxicity significance entry is listed as “** (** (p < 0.01))”, the “DEL (fold increase)” value is reported as 0.98 fold and the DEL significance result was “ns (ns—not significant (p > 0.05))”. Also, the DEL recombination result in series [4] (1.4 mM (~222 μg/ml)) was “significant increase in DEL recombination”. Also, in series [4] (1.4 mM final in well), the “Cytotoxicity (% survival)” value was determined as 36.8%, the Cytotoxicity significance entry is recorded as “*** (*** (p < 0.005))”, the “DEL (fold increase)” value is recorded as 1.44 fold and the DEL significance result is reported as “*** (*** (p < 0.005))”. In series [4] (0.2 (~32 μg/ml) or 0.7 mM (~111 μg/ml)), the genotoxic events result was “did not induce any genotoxic events”. In addition, the “lowest detectable concentration (significant genotoxicity)” value in series [4] (well-based format) came out at 1.4 mM. Further, the “DEL events per 100,000 cells” value in the series on Saccharomyces cerevisiae [1] (1.4 mM (~222 μg/ml), plate-based assay, previously observed) is 33.6 DEL events per 100,000 cells. Further, in the series with Saccharomyces cerevisiae [1], the “induction of DNA deletions” value is on record as “induced DNA deletions”. Moreover, the “lowest dose which induced significant genotoxicity” value with Saccharomyces cerevisiae [1] (traditional agar plate version) is listed as 0.7 mM. The increase above background entry in the series on Saccharomyces cerevisiae [5] is “approximately 13.6 cells”.
Consider `O=NN(CCCl)C(=O)NCCCl` [Carmustine, carmustine], for which the viability in series [3] (10 μM final in well) came out at 91.8%; in series [3] (30 μM final in well), 29.5%; in series [3] (50 μM final in well), 10.7%. Besides, the cytotoxic effects result in series [4] was “more pronounced genotoxic and cytotoxic effects”. In addition, the results for the DEL significance entry in series [4] (10 μM final in well), in series [4] (30 μM final in well) and in series [4] (50 μM final in well) were “* (* (p < 0.05))”, “*** (*** (p < 0.005))” and “*** (*** (p < 0.005))”, respectively. Further, the “DEL events (DNA deletions) induced by crosslinking agents” value in series [4] (well-based DEL assay) is on record as “significant increase in DEL events”.
For `[K+].[K+].[O]=[Cr](=[O])([O-])[O][Cr](=[O])(=[O])[O-]` [Cr (6), K2Cr2O7], in series [4] (0.2 mM final in well), the “Cytotoxicity (% survival)” value was 32.1%, the Cytotoxicity significance entry is recorded as “*** (*** (p < 0.005))”, the “DEL (fold increase)” value is recorded as 2.13 fold and the DEL significance entry is “*** (*** (p < 0.005))”. In series [4] (0.7 mM final in well), the “Cytotoxicity (% survival)” value is 9.91%, the Cytotoxicity significance result is reported as “*** (*** (p < 0.005))”, the “DEL (fold increase)” value turned out to be 3.78 fold and the DEL significance result is “*** (*** (p < 0.005))”. In series [4] (1.4 mM final in well), the “Cytotoxicity (% survival)” value is 10.8%, the Cytotoxicity significance result is “*** (*** (p < 0.005))”, the “DEL (fold increase)” value is on record as 3.12 fold and the DEL significance entry was “*** (*** (p < 0.005))”. In addition, the “induction of the DEL assay” value in series [4] (between 0.2 and 1.4 mM (~20-140 μg/ml)) is reported as “very potent induction of the DEL assay”. Moreover, the survival result in series [4] (with increased dose between 0.2 and 1.4 mM (~20-140 μg/ml)) is recorded as “severely decreased survival”. Besides, the “induction of DNA deletions” value with Saccharomyces cerevisiae [1] was “induced DNA deletions”.
